This assay addresses T1, Recombinant human Src enzyme (Homo sapiens, UniProt P12931).
T1 construct: purchased PanVera P3044
Kind of assay: Src Kinase Assay (LANCE FRET). Type of assay: biochemical. The note with it: multiple entries = tested multiple times. Here is the method:
Recombinant human Src enzyme was obtained from PanVera (P3044). […] Homogeneous fluorescence resonance energy transfer kinase assays were performed using the europium/APC detection format (LANCE, Perkin Elmer). Src enzyme (10 ng) was mixed with biotinylated peptide (final concentration 2 μM), 50 mM Hepes (pH 7.5), 10 mM MgCl2, 20 ug/ml BSA, 0.001% Brij-35 (Sigma), 100 μM ATP, 1% DMSO. The kinase reaction was incubated for 70 min at 37° C. The reaction was stopped with EDTA at a final concentration of 30 mM EDTA/25 mM Hepes (pH 7.5)/10 μg/ml BSA. The mixture was combined with Eu-labeled anti-phosphotyrosine antibody PT66 (Perkin Elmer, AD0068) and Streptavidin Surelight-APC (Perkin Elmer, CR130-100) in 50 mM Hepes (pH 7.5)/20 μg/ml BSA, and incubated for 30 min according to manufacturer's specifications. […] Multiple entries for a given compound indicate that it was tested multiple times.
In general terms: TR-FRET usually uses a lanthanide donor and a delayed reading to cut background.

Where [1] appears, read: 100 μM ATP, read-out: Src enzyme IC50.

“And” between values parts separate entries of the source, which are not always exact repeats. Equal values may be shown once. Read-outs that look alike come from different tables or passages of the source.

Usually IC50 stands for the concentration needed to halve the response being measured.

T1 sequence (P12931 whole entry): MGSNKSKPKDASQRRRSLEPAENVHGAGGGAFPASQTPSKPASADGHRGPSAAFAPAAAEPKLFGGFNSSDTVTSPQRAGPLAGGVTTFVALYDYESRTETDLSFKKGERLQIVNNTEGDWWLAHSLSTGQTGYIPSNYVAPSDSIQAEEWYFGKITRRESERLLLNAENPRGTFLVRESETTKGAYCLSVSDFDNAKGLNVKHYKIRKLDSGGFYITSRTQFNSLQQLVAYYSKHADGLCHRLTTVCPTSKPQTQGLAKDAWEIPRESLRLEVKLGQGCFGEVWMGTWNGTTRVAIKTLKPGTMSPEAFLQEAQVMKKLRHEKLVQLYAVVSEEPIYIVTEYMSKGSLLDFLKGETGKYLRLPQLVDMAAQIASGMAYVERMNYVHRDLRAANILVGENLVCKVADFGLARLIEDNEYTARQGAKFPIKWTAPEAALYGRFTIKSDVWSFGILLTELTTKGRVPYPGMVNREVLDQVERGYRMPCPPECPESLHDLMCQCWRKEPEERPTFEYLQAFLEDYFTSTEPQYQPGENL

For `COc1cc(Nc2c(C#N)cnc3cc(-c4coc(CN5CCN(Cc6ccncc6)CC5)c4)c(OC)cc23)c(Cl)cc1Cl` [Example 34, 4-[(2,4-dichloro-5-methoxyphenyl)amino]-6-methoxy-7-(5-{[4-(pyridin-4-ylmethyl)piperazin-1-yl]methyl}-3-furyl)quinoline-3-carbonitrile], the half-maximal inhibitory concentration (IC50) under setting [1] is 2.5 nM and 3 nM. For the molecule `COCCN1CCN(Cc2cc(-c3cc4ncc(C#N)c(Nc5cc(OC)c(Cl)cc5Cl)c4cc3OC)co2)CC1` [Example 30, 4-[(2,4-dichloro-5-methoxyphenyl)amino]-6-methoxy-7-(5-{[4-(2-methoxyethyl)piperazin-1-yl]methyl}-3-furyl)quinoline-3-carbonitrile], the 50% inhibitory concentration (IC50) under setting [1] was 1.9 nM and 1.7 nM. `COc1cc(Nc2c(C#N)cnc3cc(-c4coc(CN5CCCN(C)CC5)c4)c(OC)cc23)c(Cl)cc1Cl` [Example 29, 4-[(2,4-dichloro-5-methoxyphenyl)amino]-6-methoxy-7-{5-[(4-methyl-1,4-diazepan-1-yl)methyl]-3-furyl}quinoline-3-carbonitrile]: the half-inhibitory concentration (IC50) under setting [1] is 1.3 nM and 1 nM. Take `CCN(CC)Cc1cc(-c2cc3ncc(C#N)c(Nc4cc(OC)c(Cl)cc4Cl)c3cc2OC)co1` [Example 8, 4-[(2,4-dichloro-5-methoxyphenyl)amino]-7-{5-[(diethylamino)methyl]-3-furyl}-6-methoxyquinoline-3-carbonitrile]: the half-maximal inhibitory concentration (IC50) under setting [1] is 0.9 nM and 0.8 nM.

Regarding `COc1cc(Nc2c(C#N)cnc3cc(-c4coc(CN5CCN(C6CCN(C)CC6)CC5)c4)c(OC)cc23)c(Cl)cc1Cl` [Example 10, 4-[(2,4-dichloro-5-methoxyphenyl)amino]-6-methoxy-7-(5-{[4-(1-methylpiperidin-4-yl)piperazin-1-yl]methyl}-3-furyl)quinoline-3-carbonitrile], under setting [1], the IC50 stood at 0.5 nM.

On to `COc1cc(Nc2c(C#N)cnc3cc(-c4coc(CN5CCN(CCc6ccccc6)CC5)c4)c(OC)cc23)c(Cl)cc1Cl` [Example 15, 4-[(2,4-dichloro-5-methoxyphenyl)amino]-6-methoxy-7-(5-{[4-(2-phenylethyl)piperazin-1-yl]methyl}-3-furyl)quinoline-3-carbonitrile], for which the concentration for half-maximal inhibition (IC50) under setting [1] is 18.3 nM and 13.3 nM. Turning to `COc1cc(Nc2c(C#N)cnc3cc(-c4coc(CN5CCN(C(C)C)CC5)c4)c(OC)cc23)c(Cl)cc1Cl` [Example 28, 4-[(2,4-dichloro-5-methoxyphenyl)amino]-7-{5-[(4-isopropylpiperazin-1-yl)methyl]-3-furyl}-6-methoxyquinoline-3-carbonitrile], the IC50 under setting [1] is 1 nM and 0.7 nM.

Turning to `COc1cc(Nc2c(C#N)cnc3cc(-c4coc(CN5CCSCC5)c4)c(OC)cc23)c(Cl)cc1Cl` [Example 26, 4-[(2,4-dichloro-5-methoxyphenyl)amino]-6-methoxy-7-[5-(thiomorpholin-4-ylmethyl)-3-furyl]quinoline-3-carbonitrile], the IC50 under setting [1] is 9.1 nM and 7.8 nM. Turning to `COc1cc(Nc2c(C#N)cnc3cc(-c4coc(CN5CCCCC5)c4)c(OC)cc23)c(Cl)cc1Cl` [Example 7, 4-[(2,4-dichloro-5-methoxyphenyl)amino]-6-methoxy-7-[5-(piperidin-1-ylmethyl)-3-furyl]quinoline-3-carbonitrile], under “Src enzyme IC50, 100 μM ATP”, the IC50 is 0.7 nM.

As for `COc1cc(Nc2c(C#N)cnc3cc(-c4coc(CN5CCN(c6ccncc6)CC5)c4)c(OC)cc23)c(Cl)cc1Cl` [Example 21, 4-[(2,4-dichloro-5-methoxyphenyl)amino]-6-methoxy-7-[5-[(4-pyridin-4-ylpiperazin-1-yl)methyl]-3-furyl}quinoline-3-carbonitrile], under setting [1], the concentration for half-maximal inhibition (IC50) is 2.2 nM and 1.9 nM. In the case of `COc1cc(Nc2c(C#N)cnc3cc(-c4coc(CN5CCN(c6ccc(Cl)cc6)CC5)c4)c(OC)cc23)c(Cl)cc1Cl` [Example 23, 7-(5-{[4-(4-chlorophenyl)piperazin-1-yl]methyl}-3-furyl)-4-[(2,4-dichloro-5-methoxyphenyl)amino]-6-methoxyquinoline-3-carbonitrile], under setting [1], the half-inhibitory concentration (IC50) was 18.9 nM and 17 nM. Same read-out and setting: for `COc1cc(Nc2c(C#N)cnc3cc(-c4coc(CN5CCN(c6ccc(C(F)(F)F)cc6)CC5)c4)c(OC)cc23)c(Cl)cc1Cl` [Example 25, 4-[(2,4-dichloro-5-methoxyphenyl)amino]-6-methoxy-7-[5-({4-[4-(trifluoromethyl)phenyl]piperazin-1-yl}methyl)-3-furyl]quinoline-3-carbonitrile] the value was 14.1 nM and 14.4 nM; for `COc1cc(Nc2c(C#N)cnc3cc(-c4coc(CN5CCN(c6ccc(C)cc6)CC5)c4)c(OC)cc23)c(Cl)cc1Cl` [Example 22, 4-[(2,4-dichloro-5-methoxyphenyl)amino]-6-methoxy-7-(5-{[4-(4-methylphenyl)piperazin-1-yl]methyl}-3-furyl)quinoline-3-carbonitrile], 12.8 nM and 14.3 nM.

In the case of `CCCCN1CCN(Cc2cc(-c3cc4ncc(C#N)c(Nc5cc(OC)c(Cl)cc5Cl)c4cc3OC)co2)CC1` [Example 12, 7-{5-[(4-butylpiperazin-1-yl)methyl]-3-furyl}-4-[(2,4-dichloro-5-methoxyphenyl)amino]-6-methoxyquinoline-3-carbonitrile], the IC50 under setting [1] was 2.5 nM and 2.1 nM. As to `COc1cc(Nc2c(C#N)cnc3cc(-c4coc(CN5CCN(c6c(C)cccc6C)CC5)c4)c(OC)cc23)c(Cl)cc1Cl` [Example 35, 4-[(2,4-dichloro-5-methoxyphenyl)amino]-7-(5-{[4-(2,6-dimethylphenyl)piperazin-1-yl]methyl}-3-furyl)-6-methoxyquinoline-3-carbonitrile], the IC50 under setting [1] is 3.2 nM and 5.6 nM. As for `COc1cc(Nc2c(C#N)cnc3cc(-c4coc(CN5CCN(CCO)CC5)c4)c(OC)cc23)c(Cl)cc1Cl` [Example 31, 4-[(2,4-dichloro-5-methoxyphenyl)amino]-7-(5-{[4-(2-hydroxyethyl)piperazin-1-yl]methyl}-3-furyl)-6-methoxyquinoline-3-carbonitrile], the half-inhibitory concentration (IC50) under setting [1] was 1.9 nM and 1.8 nM. The same measure, in the same setting: the figure for `COc1cc(Nc2c(C#N)cnc3cc(-c4coc(CN5CCCC5)c4)c(OC)cc23)c(Cl)cc1Cl` [Example 6, 4-[(2,4-dichloro-5-methoxyphenyl)amino]-6-methoxy-7-[5-(pyrrolidin-1-ylmethyl)-3-furyl]quinoline-3-carbonitrile] is 0.8 nM and 0.9 nM. For `COc1cc(Nc2c(C#N)cnc3cc(-c4coc(CN5CCN(Cc6ccccc6)CC5)c4)c(OC)cc23)c(Cl)cc1Cl` [Example 14, 7-{5-[(4-benzylpiperazin-1-yl)methyl]-3-furyl}-4-[(2,4-dichloro-5-methoxyphenyl)amino]-6-methoxyquinoline-3-carbonitrile], under setting [1], the half-maximal inhibitory concentration (IC50) was 33.7 nM and 56.2 nM. Take `CCN1CCN(Cc2cc(-c3cc4ncc(C#N)c(Nc5cc(OC)c(Cl)cc5Cl)c4cc3OC)co2)CC1` [Example 9, 4-[(2,4-dichloro-5-methoxyphenyl)amino]-7-{5-[(4-ethylpiperazin-1-yl)methyl]-3-furyl}-6-methoxyquinoline-3-carbonitrile]: the IC50 under setting [1] was 0.6 nM and 0.7 nM. The same measure, in the same setting: the figure for `COc1cc(Nc2c(C#N)cnc3cc(-c4coc(CN(C)CCN(C)C)c4)c(OC)cc23)c(Cl)cc1Cl` [Example 27, 4-[(2,4-dichloro-5-methoxyphenyl)amino]-7-(5-{[[2-(dimethylamino)ethyl](methyl)amino]methyl}-3-furyl)-6-methoxyquinoline-3-carbonitrile] is 3.2 nM and 2.5 nM. Same read-out and setting: for `COc1cc(Nc2c(C#N)cnc3cc(-c4coc(CN5CCN(CCN6CCOCC6)CC5)c4)c(OC)cc23)c(Cl)cc1Cl` [Example 13, 4-[(2,4-dichloro-5-methoxyphenyl)amino]-6-methoxy-7-(5-{[4-(2-morpholin-4-ylethyl)piperazin-1-yl]methyl}-3-furyl)quinoline-3-carbonitrile] the value was 1 nM; for `COc1ccc(N2CCN(Cc3cc(-c4cc5ncc(C#N)c(Nc6cc(OC)c(Cl)cc6Cl)c5cc4OC)co3)CC2)cc1` [Example 20, 4-[(2,4-dichloro-5-methoxyphenyl)amino]-6-methoxy-7-(5-{[4-(4-methoxyphenyl)piperazin-1-yl]methyl}-3-furyl)quinoline-3-carbonitrile], 10 nM and 11.7 nM; for `COc1cc(Nc2c(C#N)cnc3cc(-c4coc(CN5CC[S+]([O-])CC5)c4)c(OC)cc23)c(Cl)cc1Cl` [Example 18, 4-[(2,4-dichloro-5-methoxyphenyl)amino]-6-methoxy-7-{5-[(1-oxidothiomorpholin-4-yl)methyl]-3-furyl}quinoline-3-carbonitrile], 1.5 nM and 2.4 nM.

Regarding `COc1cc(Nc2c(C#N)cnc3cc(-c4coc(CN5CCS(=O)(=O)CC5)c4)c(OC)cc23)c(Cl)cc1Cl` [Example 17, 4-[(2,4-dichloro-5-methoxyphenyl)amino]-7-{5-[(1,1-dioxidothiomorpholin-4-yl)methyl]-3-furyl}-6-methoxyquinoline-3-carbonitrile], the IC50 under setting [1] is 2.4 nM and 2.1 nM. In the case of `COc1cc(Nc2c(C#N)cnc3cc(-c4coc(CN5CCN(C6CCCCC6)CC5)c4)c(OC)cc23)c(Cl)cc1Cl` [Example 19, 7-{5-[(4-cyclohexylpiperazin-1-yl)methyl]-3-furyl}-4-[(2,4-dichloro-5-methoxyphenyl)amino]-6-methoxyquinoline-3-carbonitrile], the IC50 under setting [1] was 3.6 nM and 2.8 nM. On the same count and under the same terms, for `COc1cc(Nc2c(C#N)cnc3cc(-c4coc(CN5CCC(N6CCCC6)CC5)c4)c(OC)cc23)c(Cl)cc1Cl` [Example 11, 4-[(2,4-dichloro-5-methoxyphenyl)amino]-6-methoxy-7-{5-[(4-pyrrolidin-1-ylpiperidin-1-yl)methyl]-3-furyl}quinoline-3-carbonitrile] the value was 1.1 nM and 1 nM.

Source of the values: US7479561B2, “4-(2,4-dichloro-5-methoxyphenyl)amino-6-methoxy-7-{[5-substituted-amino)methyl]-3-furyl}-3-quinolinecarbonitriles as kinase inhibitors” (Wyeth, priority 2004, dated 2009).
